Read-outs that look alike come from different tables or passages of the source.
How the values were obtained:
[1] = target: Human FASN (hFASN enzyme, full length) (Homo sapiens (Human), UniProt P49327); assay: Fatty Acid Synthase (FASN) Inhibition Scintillation Proximity Assay; assay type: biochemical; conditions: hFASN SPA, 3H-acetyl-CoA/malonyl-CoA; mean if tested more than once; ~ = standard error of pIC50 >0.5
Description: In this assay, inhibition of FASN activity is measured using ^3H-acetyl-CoA and malonyl-CoA as substrates. ^3H-Acetyl CoA is converted to ^3H-palmitate through a series of reactions by the FASN protein, which contains 7 functional domains and carries out 7 enzymatic reactions to ultimately produce ^3H-palmitate. The assay principle is based upon the fact that ^3H-acetyl-CoA is hydrophilic and the end product, ^3H-palmitate is hydrophobic.
0.9 μL test compound (at concentrations of 30 μM, 10 μM, 3 μM, 1 μM, 0.30 μM, 0.10 μM, 0.03 μM and 0.01 μM)/DMSO and 10 μL hFASN enzyme (full length, 300 ng, purified in house) or 10 μL assay buffer was added to the wells. […] The reaction was stopped by adding 20 μL Streptavidin coupled imaging beads (25 mg/ml). After incubation for 30 minutes at room temperature in the dark, the 384 well plate was centrifuged at 1500 rpm for 3 minutes and was measured after at least 24 hrs by the LEADseeker™, measuring emission using a 610±20 nm pass filter.
(§1) Raw data generated by the instrument were normalized to % Controlmin values, which were calculated as: % Controlmin=100*(x−mLC)/(mHC−mLC)
where mLC and mHC were the means of the low control wells and high control wells on the plate, after manual exclusion of outliers. […]

[2] = target: FASN Keto-reductase Domain (hFASN enzyme, full length) (Homo sapiens (Human), UniProt P49327); assay: Fatty Acid Synthase Keto-Reductase Domain (FASN KR) Inhibition; assay type: biochemical; conditions: NADPH oxidation at 340 nm, ethyl acetoacetate substrate, mean if tested more than once; for IC50: read-out: FASN Keto-reductase Domain pIC50 (converted)
Description: After 20 minutes incubation at room temperature the plate was measured again (T2).
The decrease in absorbance was calculated as (Absorbance before incubation T1)−(Absorbance following incubation T2).
as §1
where mLC and mHC were the means of the low control wells and high control wells on the plate, after manual exclusion of outliers. A plot of Controlmin versus test compound concentration was fitted to a 4-parameter logistic curve using a non-linear least squares regression method.

A2780 ovarian cells = assay: A2780 Ovarian Cell Proliferation Assay in Lipid Reduced Medium, with and without Palmitate (MTT); assay type: cell-based; conditions: 10% lipid-reduced serum, 96 h; for IC50: Homo sapiens
[3] = test system: LNCaP_Vancouver prostate cells; assay: In Vitro LNCaP Vancouver Prostate Cell Proliferation Assay in Lipid Reduced Medium; assay type: cell-based; conditions: 10% lipid reduced serum, 96 h, ATP-glow luminescence; for IC50: Prostate cell, read-out: pIC50 LNCaP_Vancouver prostate cell (converted)
[4] = test system: PC-3M-Luc-C6 prostate cells; assay: In Vitro PC-3M-Luc-C6 Prostate Cell Proliferation Assay in Lipid Reduced Medium; assay type: cell-based; conditions: 10% lipid reduced serum, 96 h, ATP-glow luminescence; for IC50: Prostate cell, read-out: pIC50 PC-3M-Luc-C6 prostate cell (converted)
[5] = no palmitate, read-out: pIC50 Without Palmitate (converted)
[6] = 25 μM palmitate added (control), read-out: pIC50 With Palmitate (converted)

FASN Keto-reductase Domain (hFASN enzyme, full length), sequence (P49327 whole entry, the tested form may be a part): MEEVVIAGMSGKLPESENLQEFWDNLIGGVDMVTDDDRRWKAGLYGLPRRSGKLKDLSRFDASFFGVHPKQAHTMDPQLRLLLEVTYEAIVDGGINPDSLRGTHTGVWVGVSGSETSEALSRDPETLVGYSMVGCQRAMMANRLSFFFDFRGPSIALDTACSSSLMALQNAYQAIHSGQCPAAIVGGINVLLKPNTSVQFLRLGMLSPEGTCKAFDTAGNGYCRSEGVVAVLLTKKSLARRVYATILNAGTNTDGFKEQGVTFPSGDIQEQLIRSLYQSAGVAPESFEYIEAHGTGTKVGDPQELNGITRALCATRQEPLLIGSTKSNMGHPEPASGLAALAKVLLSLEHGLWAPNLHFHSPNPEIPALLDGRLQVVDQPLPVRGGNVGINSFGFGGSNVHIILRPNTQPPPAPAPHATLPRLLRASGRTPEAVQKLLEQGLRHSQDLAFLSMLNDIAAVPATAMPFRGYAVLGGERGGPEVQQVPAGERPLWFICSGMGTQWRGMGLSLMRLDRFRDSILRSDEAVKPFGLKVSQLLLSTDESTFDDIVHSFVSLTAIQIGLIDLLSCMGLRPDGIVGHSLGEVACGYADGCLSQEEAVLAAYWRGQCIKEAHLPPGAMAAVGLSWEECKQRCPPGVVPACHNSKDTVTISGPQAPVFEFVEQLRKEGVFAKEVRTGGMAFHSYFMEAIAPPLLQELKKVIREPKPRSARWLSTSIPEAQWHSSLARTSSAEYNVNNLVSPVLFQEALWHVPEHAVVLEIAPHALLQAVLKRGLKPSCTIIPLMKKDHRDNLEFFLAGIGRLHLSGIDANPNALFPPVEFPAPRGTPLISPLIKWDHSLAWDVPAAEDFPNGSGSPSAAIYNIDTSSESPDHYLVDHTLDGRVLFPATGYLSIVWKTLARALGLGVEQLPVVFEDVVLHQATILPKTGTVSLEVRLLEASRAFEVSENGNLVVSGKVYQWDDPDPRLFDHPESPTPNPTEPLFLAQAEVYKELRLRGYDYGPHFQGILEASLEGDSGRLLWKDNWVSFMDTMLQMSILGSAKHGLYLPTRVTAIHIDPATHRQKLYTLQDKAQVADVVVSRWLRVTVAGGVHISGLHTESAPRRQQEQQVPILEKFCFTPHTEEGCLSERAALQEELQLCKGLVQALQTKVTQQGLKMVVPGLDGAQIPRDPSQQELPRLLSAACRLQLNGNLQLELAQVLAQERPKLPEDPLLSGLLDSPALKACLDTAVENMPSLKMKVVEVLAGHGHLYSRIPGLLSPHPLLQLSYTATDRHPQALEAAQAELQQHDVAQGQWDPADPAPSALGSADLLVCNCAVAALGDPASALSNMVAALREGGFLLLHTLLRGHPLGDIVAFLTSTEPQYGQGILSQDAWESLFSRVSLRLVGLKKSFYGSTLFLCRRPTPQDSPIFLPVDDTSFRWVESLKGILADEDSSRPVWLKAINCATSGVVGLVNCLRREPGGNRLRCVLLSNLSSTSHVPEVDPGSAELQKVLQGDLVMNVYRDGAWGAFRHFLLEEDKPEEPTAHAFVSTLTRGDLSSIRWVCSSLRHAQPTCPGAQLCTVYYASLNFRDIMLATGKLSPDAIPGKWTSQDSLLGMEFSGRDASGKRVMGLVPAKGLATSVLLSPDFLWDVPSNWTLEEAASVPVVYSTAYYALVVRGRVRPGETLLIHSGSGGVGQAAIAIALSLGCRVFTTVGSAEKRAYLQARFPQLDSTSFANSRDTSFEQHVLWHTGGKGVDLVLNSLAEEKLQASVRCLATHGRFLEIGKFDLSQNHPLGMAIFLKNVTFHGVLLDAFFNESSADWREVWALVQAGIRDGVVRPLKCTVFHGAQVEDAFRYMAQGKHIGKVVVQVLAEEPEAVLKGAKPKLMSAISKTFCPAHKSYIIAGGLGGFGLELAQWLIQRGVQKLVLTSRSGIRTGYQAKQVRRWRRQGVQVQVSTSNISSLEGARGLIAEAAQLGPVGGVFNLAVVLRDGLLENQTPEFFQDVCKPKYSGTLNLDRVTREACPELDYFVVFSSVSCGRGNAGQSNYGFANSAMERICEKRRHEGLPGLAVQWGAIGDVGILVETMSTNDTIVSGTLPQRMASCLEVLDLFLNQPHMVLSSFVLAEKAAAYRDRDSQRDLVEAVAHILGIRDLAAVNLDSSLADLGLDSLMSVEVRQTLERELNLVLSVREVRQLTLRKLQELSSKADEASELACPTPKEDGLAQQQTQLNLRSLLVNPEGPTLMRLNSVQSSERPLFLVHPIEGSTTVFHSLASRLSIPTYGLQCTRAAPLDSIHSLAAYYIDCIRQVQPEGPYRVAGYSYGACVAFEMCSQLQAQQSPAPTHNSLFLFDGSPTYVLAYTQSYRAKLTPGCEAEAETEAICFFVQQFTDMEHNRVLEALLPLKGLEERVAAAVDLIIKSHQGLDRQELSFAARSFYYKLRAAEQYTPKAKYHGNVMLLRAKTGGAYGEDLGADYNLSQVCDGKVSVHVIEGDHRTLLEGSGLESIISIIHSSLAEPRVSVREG
Human FASN (hFASN enzyme, full length), sequence (P49327 whole entry, the tested form may be a part): as above

Row | Molecule | IC50 [2] | IC50 [3] | IC50 [4] | IC50 (A2780 ovarian cells; [5]) | IC50 (A2780 ovarian cells; [6]) | other results
1 | 1-((1-(cyclopropanecarbonyl)azetidin-3-yl)methyl)-2-(2-fluoro-4-(1-methyl-1H-indazol-5-yl)phenyl)-4,4-dimethyl-1H-1-imidazol-5(4H)-one [Compound 69] |  |  |  |  |  | Human FASN pIC50 [1]: 6.96; FASN Keto-reductase Domain pIC50 [2]: 6.67; pIC50 With Palmitate (A2780 ovarian cells; 25 μM palmitate added (control)): <5; pIC50 Without Palmitate (A2780 ovarian cells; no palmitate): 7.19; pIC50 LNCaP_Vancouver prostate cell [3]: 6.87; pIC50 PC-3M-Luc-C6 prostate cell [4]: 7.04
2 | CC1(C)N=C(c2ccc(-c3n[nH]c4ccccc34)cc2F)N(C[C@@H]2CCN(C(=O)C3CC3)C2)C1=O [Compound 57, (R)-1-((1-(cyclopropanecarbonyl)pyrrolidin-3-yl)methyl)-2-(2-fluoro-4-(1H-indazol-3-yl)phenyl)-4,4-dimethyl-1H-imidazol-5(4H)-one] | 2750 nM | 1780 nM | 646 nM |  |  | 
3 | CC1(C)N=C(c2ccc(-c3c[nH]c4ccccc34)cc2F)N(C[C@@H]2CCN(C(=O)C3CC3)C2)C1=O [Compound 63, (R)-1-((1-(cyclopropanecarbonyl)pyrrolidin-3-yl)methyl)-2-(2-fluoro-4-(1H-indol-3-yl)phenyl)-4,4-dimethyl-1H-imidazol-5(4H)-one] | 186 nM | 525 nM |  |  |  | 
4 | CC1(C)N=C(c2ccc(-c3ccc4cc(F)ccc4c3)cc2F)N(C[C@@H]2CCN(C(=O)C3CC3)C2)C1=O [Compound 66] | 52.5 nM | 692 nM | 589 nM | ~427 nM |  | 
5 | CC1(C)N=C(c2ccc(-c3ccc4cnccc4c3)cc2F)N(C[C@@H]2CCN(C(=O)C3CC3)C2)C1=O [Compound 68, (R)-1-((1-(cyclopropanecarbonyl)pyrrolidin-3-yl)methyl)-2-(2-fluoro-4-(isoquinolin-6-yl)phenyl)-4,4-dimethyl-1H-imidazol-5(4H)-one] | 47.9 nM | 204 nM |  | 17.4 nM |  | 
6 | Cn1cc(-c2ccc(-c3ccc(C4=NC(C)(C)C(=O)N4CC4CN(C(=O)C5(C)CC5)C4)c(F)c3)cc2)cn1 [Compound 70] |  | 135 nM | 11 nM | 24.5 nM | > 10000 nM | 
7 | CC1(C)N=C(c2ccc(-c3nc4ccccc4[nH]3)cc2)N(C[C@@H]2CCN(C(=O)C3CC3)C2)C1=O [Compound 71, (R)-2-(4-(1H-benzo[d]imidazol-2-yl)phenyl)-1-((1-(cyclopropanecarbonyl)pyrrolidin-3-yl)methyl)-4,4-dimethyl-1H-imidazol-5(4H)-one] |  |  |  | ~9330 nM | > 10000 nM | Human FASN pIC50 [1]: 5.23
8 | CC1(C(=O)N2CC(CN3C(=O)C(C)(C)N=C3c3ccc(-c4ccc5cc(F)ccc5c4)cc3F)C2)CC1 [Compound 72, 2-(2-fluoro-4-(6-fluoronaphthalen-2-yl)phenyl)-4,4-dimethyl-1-((1-(1-methylcyclopropanecarbonyl)azetidin-3-yl)methyl)-1H-imidazol-5(4H)-one] |  | 295 nM | 26.9 nM | ~25.7 nM | 7760 nM | 

Now from value to molecule, other results behind:

Row | IC50 [2] | IC50 [3] | IC50 [4] | IC50 (A2780 ovarian cells; [5]) | IC50 (A2780 ovarian cells; [6]) | Molecule | other results
9 |  | 398 nM | 18.6 nM | 13.5 nM | > 10000 nM | Cn1ncc2cc(-c3ccc(C4=NC(C)(C)C(=O)N4C[C@@H]4CCN(C(=O)C5(C)CC5)C4)c(F)c3)ccc21 [Compound 73, (R)-2-(2-fluoro-4-(1-methyl-1H-indazol-5-yl)phenyl)-4,4-dimethyl-1-((1-(1-methylcyclopropanecarbonyl)pyrrolidin-3-yl)methyl)-1H-imidazol-5(4H)-one] | 
10 |  | 11.5 nM | ~8.32 nM | 3.89 nM | > 10000 nM | Cn1cc(-c2ccc(-c3ccc(C4=NC(C)(C)C(=O)N4C[C@@H]4CCN(C(=O)C5(C)CC5)C4)c(F)c3)cc2)cn1 [Compound 74, (R)-2-(3-fluoro-4′-(1-methyl-1H-pyrazol-4-yl)-[1,1′-biphenyl]-4-yl)-4,4-dimethyl-1-((1-(1-methylcyclopropanecarbonyl)pyrrolidin-3-yl)methyl)-1H-imidazol-5(4H)-one] | 
11 |  | 1170 nM | 112 nM | 316 nM | > 10000 nM | Cc1cc(-c2ccc3c(cnn3C)c2)ccc1C1=NC(C)(C)C(=O)N1CC1CN(C(=O)C2(C)CC2)C1 [Compound 77, 4,4-dimethyl-2-(2-methyl-4-(1-methyl-1H-1-indazol-5-yl)phenyl)-1-((1-(1-methylcyclopropanecarbonyl)azetidin-3-yl)methyl)-1H-imidazol-5(4H)-one] | 
12 |  | 3090 nM | 447 nM | 537 nM | > 10000 nM | Cn1ncc2cc(-c3ccc(C4=NC(C)(C)C(=O)N4CC4CN(C(=O)C5(O)CC5)C4)c(F)c3)ccc21 [Compound 78, 2-(2-fluoro-4-(1-methyl-1H-indazol-5-yl)phenyl)-1-((1-(1-hydroxycyclopropanecarbonyl)azetidin-3-yl)methyl)-4,4-dimethyl-1H-imidazol-5(4H)-one] | 
13 |  | 178 nM | ~70.8 nM | 11.7 nM | ~10000 nM | Cc1cc(-c2ccc(-c3cnn(C)c3)cc2)ccc1C1=NC(C)(C)C(=O)N1CC1CN(C(=O)C2(C)CC2)C1 [Compound 87, 4,4-dimethyl-2-(3-methyl-4′-(1-methyl-1H-pyrazol-4-yl)-[1,1′-biphenyl]-4-yl)-1-((1-(1-methylcyclopropanecarbonyl)azetidin-3-yl)methyl)-1H-imidazol-5(4H)-one] | 
